Laboratory results reported in ChEMBL document CHEMBL1122964, “Conformational analysis and active site modelling of angiotensin-converting enzyme inhibitors” (J Med Chem, 1985).
Where a SMILES comes first, the peptide text is derived from it. The star is where a group is joined. Bz = O=C(c1ccccc1)*

Target: T1, Angiotensin-converting enzyme (Homo sapiens, UniProt P12821)
Test: Inhibition of Angiotensin I converting enzyme
Settings: read-out: I50

T1 sequence (P12821 whole entry): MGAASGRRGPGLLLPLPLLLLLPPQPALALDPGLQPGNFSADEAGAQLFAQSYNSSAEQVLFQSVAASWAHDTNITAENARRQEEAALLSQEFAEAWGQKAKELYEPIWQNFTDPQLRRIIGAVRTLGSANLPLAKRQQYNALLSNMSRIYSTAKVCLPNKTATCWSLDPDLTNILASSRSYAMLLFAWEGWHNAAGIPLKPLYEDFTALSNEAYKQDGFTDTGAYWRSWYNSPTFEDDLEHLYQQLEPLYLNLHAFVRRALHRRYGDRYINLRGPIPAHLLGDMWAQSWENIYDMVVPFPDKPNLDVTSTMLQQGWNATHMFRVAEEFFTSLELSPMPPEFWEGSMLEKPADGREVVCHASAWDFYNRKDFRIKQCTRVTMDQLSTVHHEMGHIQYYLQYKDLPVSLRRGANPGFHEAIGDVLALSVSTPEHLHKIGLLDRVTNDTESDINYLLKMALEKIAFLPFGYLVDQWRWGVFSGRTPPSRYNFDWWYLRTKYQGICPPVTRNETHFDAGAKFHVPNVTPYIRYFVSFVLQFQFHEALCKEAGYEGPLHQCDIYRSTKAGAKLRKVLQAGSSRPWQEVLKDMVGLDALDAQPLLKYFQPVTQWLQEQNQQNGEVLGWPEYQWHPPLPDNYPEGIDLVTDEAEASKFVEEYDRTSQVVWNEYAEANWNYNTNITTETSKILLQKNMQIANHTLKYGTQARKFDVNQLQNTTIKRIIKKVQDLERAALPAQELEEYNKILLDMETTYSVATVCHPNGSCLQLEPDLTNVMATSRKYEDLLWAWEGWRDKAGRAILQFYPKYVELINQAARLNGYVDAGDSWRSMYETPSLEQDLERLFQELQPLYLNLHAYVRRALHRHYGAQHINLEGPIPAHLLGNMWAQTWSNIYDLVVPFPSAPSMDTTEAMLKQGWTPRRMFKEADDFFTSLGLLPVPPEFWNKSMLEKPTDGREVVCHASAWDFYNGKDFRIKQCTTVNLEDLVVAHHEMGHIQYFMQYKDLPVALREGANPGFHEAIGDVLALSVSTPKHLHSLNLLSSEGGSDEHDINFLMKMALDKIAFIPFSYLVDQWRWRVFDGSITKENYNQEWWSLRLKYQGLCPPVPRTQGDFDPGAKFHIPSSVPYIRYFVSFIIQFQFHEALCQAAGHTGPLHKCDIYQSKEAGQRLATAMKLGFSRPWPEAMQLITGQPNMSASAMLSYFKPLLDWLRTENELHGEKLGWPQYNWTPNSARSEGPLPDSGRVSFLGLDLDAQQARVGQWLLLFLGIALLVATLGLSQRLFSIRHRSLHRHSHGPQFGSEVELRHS

SMILES | IC50 [µM]
O=C(O)[C@@H]1CCCN1C(=O)CCS | 1800
C[C@H](NC(=O)[C@H](Cc1ccccc1)NC(=O)c1ccccc1)C(=O)N1CCC[C@H]1C(=O)O (Bz-Phe-Ala-Pro-OH) | 0.0032

The next lines start with the values.

IC50 [µM] | SMILES
0.2 | O=C(O)[C@H]1CCCN1C(=O)CCS
0.003 | O=C(O)CN1C(=O)[C@@H](NC(CCc2ccccc2)C(=O)O)CSc2ccccc21 (stereo partly specified)

Target: T1, Angiotensin-converting enzyme
Test: Compound was evaluated for the inhibition of Angiotensin I converting enzyme
Settings: not given

SMILES | Ki [µM]
C[C@@H](NP(=O)(O)O)C(=O)N1CCC[C@H]1C(=O)O | 0.0014
C[C@H](NP(=O)(O)CCc1ccccc1)C(=O)N1CCC[C@H]1C(=O)O | 0.0005
